Measurements: paper PMC11445708 (Dalton transactions (Cambridge, England : 2003), 2024)

Tested on: mouse neuroblastoma N2a cells
Test: Rescue of Aβ42-induced neurotoxicity in N2a cells
Format: cell-based
Settings: N2a cells treated with Aβ42 and compound

For `COc1cc(/C=C/C(=O)CC(=O)/C=C/c2ccc(O)c(OC)c2)ccc1O` [curcumin], which “effect on Aβ42-induced neurotoxicity” value is on record?
The value was “dramatically increased the Aβ-induced cytotoxicity”.
